Experimental data taken from patent US12059413B2, “Methods of inhibiting viruses using compositions targeting TSG101-ubiquitin interaction” (The Research Foundation for the State University of New York, priority 2016, dated 2024).

Legend:
[1] = target: T1, Tsg101 (Homo sapiens, UniProt Q99816); assay: NWU screening / in vitro binding assay
T1 sequence (Q99816 2-145 limits assumed): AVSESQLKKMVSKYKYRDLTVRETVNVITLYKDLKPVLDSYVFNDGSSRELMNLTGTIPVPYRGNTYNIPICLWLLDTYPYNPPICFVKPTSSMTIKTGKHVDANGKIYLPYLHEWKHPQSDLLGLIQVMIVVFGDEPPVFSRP
From the text: Pantoprazole, Lansoprazole/Dexlansoprazole (dexlansoprazole is the active enantiomer of the racemic lansoprazole), and Rabeprazole were in the NWU screen but were not considered hits.

[2] = target: T2, Tsg101 UEV domain (Homo sapiens, UniProt Q99816); assay: NMR / LC-MS binding of compound to Tsg101 UEV domain
T2 construct: Tsg101 UEV domain (residues 2-145) was encoded in a pET-28b vector; His6-TEV site (N, cleaved yes); made in house; host or cells: E. coli Rosetta 2 (DE3) pLysS
T2 sequence (Q99816 2-145): T1 sequence (Q99816 2-145 limits assumed)
Description: N16 (20 mM solution, DMSO) was added to Tsg101 UEV domain in a 10:1 ratio (N16 excess).
For binding studies using NMR spectroscopy, the following complexes were made: Tsg101 UEV-N16, UEV-PTAP, UEV-Ub, UEV-N16-PTAP, and UEV-N16-Ub, all in Tsg101 NMR buffer: 20 mM potassium phosphate, 50 mM NaCl, pH 5.8, with UEV concentration of 200 μM.

[3] = Conversion of prazoles to sulfenamide / half-life; type: physicochemical
From the text: To measure sulfenamide formation: Dissolve each compound in water/buffer and measure the formation of colored compounds by UV-visible absorption, since the initial compound is colorless and the final compound (the sulfenamide dimer) is colored.

[4] = tested on: 293T cells; assay: Metabolic activity, WST-1 assay, 293T cells; type: cell-based; settings: metabolic measurements, WST-1 reagent
Description: FIG. 20A-C. N16 inhibition is virus-specific. A) N16 IC50 for Hela and 293T cells. […] Values were calculated by measuring metabolic activity (WST-1 Assay, Roche Applied Science) after cells were grown for 24 hr in N16. Data points represent the mean of 2 assays, 3 time points each for each cell line. […] Values in the absence or presence of N16 (50 uM) were 12% and 13%, respectively). C) N16 effect on EGF-stimulated EFGR degradation. Cells maintained for 24 hr in media containing DMSO alone or DMSO and N16 were stimulated with EGF ligand for a 90 min period and then assessed for EGFR steady-state level by Western analysis. EGFR levels for unstimulated and stimulated sample pairs are shown. A) n=2; B) n=2; C) n=2.
FIG. 27A-C. Effect of N-Acetyl Cysteine (NAC) on N16-mediated inhibition of VLP production and intracellular Gag accumulation. […] A concentration of 3 mM NAC was therefore used to test the effect of the antioxidative reagent on the N16 inhibitory effect. N16 (0, 12, 25, 50, 75, and 100 uM) was added 8.5 hr prior to transfection with pNL4-3ΔEnv. Cells were harvested 16 hr later. […] C) Quantitative analysis. n=2.
Cells were grown in 96-well trays for 24 hr with increasing levels of drug, metabolic activity was measured using WST-1colorimetric assay (Roche), and IC50 values were calculated (Prism 6, Graph Pad Software Inc.).

[5] = target: proteasome (Homo sapiens, UniProt P20618+P28074); settings: Gelman et al.; cited from earlier work

Cc1c(OCC(F)(F)F)ccnc1C[S+]([O-])c1nc2ccccc2[nH]1 (racemic) [Lansoprazole]
binding in the NWU screening assay [1]: bound weakly | residue bound in Tsg101 UEV (NMR and fluorescence perturbances) [2]: bind to residue C73 | slowness of sulfenamide conversion relative to Rabeprazole [3]: ~2 ×

CC(=O)N[C@@H](CS)C(=O)O [NAC, N-Acetyl Cysteine]
concentration up to which 293T cells were robust [4]: at least 4 mM

CC(C)C[C@H](NC(=O)[C@H](Cc1ccccc1)NC(=O)c1cnccn1)B(O)O [bortezomib]
concentration giving proteasome inhibition, previous studies [5]: ≥ 5 nM
